These are literature values, as cited in patent publication US8372797B2, “Treatment of erectile dysfunction by stem cell therapy” (Creative Medical Health, Inc., priority 2006, dated 2013).

Data set [1] deals with diabetic rats. As to conditions: intracavernous, gelatin microbeads.
Data set [2] has as its system hypercholesterolemic rabbits. As to conditions: systemic administration.
Data set [3] concerns hypercholesterolemic rabbits. The conditions noted are these: two 2.5 microgram doses separated by a 3-week interval into corporal tissue.
Data set [4] has as its system model of rat diabetes associated ED. The conditions noted are these: exogenous administration.

For the substance “bFGF: basic fibroblast growth factor, a known inducer of angiogenesis”, the erectile function result in data set [1] is “protection of erectile function from diabetes mediated onset”. Further, the “histological changes in the corpus cavernosum” value in data set [2] was “favorable histological changes”. The “corporal relaxation and ability to generate NO” value in data set [3] was “increase corporal relaxation in response to chemical stimuli”.

Regarding superoxide dismutase, in data set [4], the erectile function entry is “increase erectile function”.
